Reference: patent US20150087622A1, “NEW METHOD OF USE OF A PESTICIDE” (SYNGENTA PARTICIPATIONS AG, priority 2012, published 2015)
Where two headings read alike, the source gives them in different places.

What was measured:
Diabrotica balteata = assay: Transovarial effects on Diabrotica balteata adults fed on sprayed bean plants (% egg mortality); type: in vivo; details: for mortality at 10 ppm / mortality at 25 ppm / mortality at 50 ppm: Diabrotica balteata; for Transovarial effects on treated adults of Diabrotica balteata: at the used dose rates
Protocol: The following IGRs in Table 1 were tested for their transovarial effects on Diabrotica balteata by observing percentage egg mortality.
Bean plants (Phaseolus vulgaris, var. Amata) were treated in an automatic spray chamber (ARO-1) with around 500 l/ha. After drying of the spray deposits, plants were placed in gauze cages and infested with newly hatched (0-24 h old) Diabrotica balteata adults. After seven days, treated plants were removed and replaced by non-treated plants. From day seven to day 38 eggs were collected in three-day intervals, counted and checked on number of hatched larvae (% egg mortality). Percentage egg mortality was calculated as the number of unhatched eggs per total number of eggs laid.

Spodoptera frugiperda = assay: Foliar spray application on cotton, larval mortality of Spodoptera frugiperda; type: in vivo; details: 4 DAT (days after treatment)
Source text: For example on both Spodoptera frugiperda and Plutella xylostella similar activities were obtained for the same rates: […]

[1] = egg laying period 1, read-out: % egg mortality: on egg laying period 1
[2] = egg laying period 2, read-out: % egg mortality: on egg laying period 2
[3] = egg laying period 3, read-out: % egg mortality: on egg laying period 3
[4] = egg laying period 4, read-out: % egg mortality: on egg laying period 4
[5] = egg laying period 5, read-out: % egg mortality: on egg laying period 5
[6] = egg laying period 6, read-out: % egg mortality: on egg laying period 6
[7] = egg laying period 7, read-out: % egg mortality: on egg laying period 7
[8] = egg laying period 8, read-out: % egg mortality: on egg laying period 8

SMILES	mortality at 10 ppm (Diabrotica balteata; [1]) [%]	mortality at 10 ppm (Diabrotica balteata; [2]) [%]	mortality at 10 ppm (Diabrotica balteata; [3]) [%]	mortality at 10 ppm (Diabrotica balteata; [4]) [%]	mortality at 10 ppm (Diabrotica balteata; [5]) [%]	mortality at 10 ppm (Diabrotica balteata; [6]) [%]	mortality at 25 ppm (Diabrotica balteata; [1]) [%]	mortality at 25 ppm (Diabrotica balteata; [2]) [%]	mortality at 25 ppm (Diabrotica balteata; [3]) [%]	mortality at 25 ppm (Diabrotica balteata; [4]) [%]	mortality at 25 ppm (Diabrotica balteata; [6]) [%]	mortality at 50 ppm (Diabrotica balteata; [2]) [%]	mortality at 50 ppm (Diabrotica balteata; [3]) [%]	mortality at 50 ppm (Diabrotica balteata; [4]) [%]	mortality at 50 ppm (Diabrotica balteata; [5]) [%]	mortality at 50 ppm (Diabrotica balteata; [6]) [%]	mortality at 50 ppm (Diabrotica balteata; [7]) [%]	Spray interval (Diabrotica balteata; Rate 12.5 g AI/ha) [days]	Spray interval (Diabrotica balteata; Rate 25 g AI/ha) [days]	Transovarial effects on treated adults of Diabrotica balteata (Diabrotica balteata)	further results
O=C(NC(=O)c1c(F)cccc1F)Nc1ccc(Oc2ccc(C(F)(F)F)cc2Cl)cc1F [Cascade, Flufenoxuron]	69	22	91	10	9	8	100	100	98	64	14	100	100	64	13	6	11	7	7	Transovarial effects can be observed	mortality at 10 ppm (Diabrotica balteata; [7]): 8%; mortality at 10 ppm (Diabrotica balteata; [8]): 8%; mortality at 25 ppm (Diabrotica balteata; [7]): 9%; mortality at 50 ppm (Diabrotica balteata; [8]): 9%; Spray interval (Diabrotica balteata; Rate 5 g AI/ha): 7 days
O=C(NC(=O)c1c(F)cccc1F)Nc1cc(Cl)c(OC(F)(F)C(F)F)c(Cl)c1 [Consult, Hexaflumuron]	75	36	7	8	9	10	97	93	15	11	11	92	15	22	48	15		5	5	Transovarial effects can be observed	Spray interval (days) (Diabrotica balteata; Rate 5 g AI/ha): Insufficient
O=C(NC(=O)c1c(F)cccc1F)Nc1ccc(Cl)cc1 [Dimilin, Diflubenzuron]	0	11	6	10	9	12	0	7	5	5	10	16	3	5	7	7	8			transovarially inactive	
COc1cccc(C(=O)NN(C(=O)c2cc(C)cc(C)c2)C(C)(C)C)c1C [Intrepid, Methoxyfenozide]	7	8	9	7			13	13	7	11		14	10	9						transovarially inactive	
O=C(NC(=O)c1c(F)cccc1F)Nc1cc(Cl)c(OC(F)(F)C(F)C(F)(F)F)cc1Cl (stereo not shown) [Match, Lufenuron]	100	100	73	17	8	9	100	100	85	15	8	100	96	50	40	9	8	7	7	Transovarial effects can be observed	total number of sterilised (unhatched) eggs, considered over the whole test period (Diabrotica balteata; 5 g AI ha^-1): ~20%; total number of sterilised (unhatched) eggs, considered over the whole test period (Diabrotica balteata; 12.5 g AI ha^-1): ≈ 25%; total number of sterilised (unhatched) eggs, considered over the whole test period (Diabrotica balteata; 25 g AI ha^-1): ≈ 25%; mortality at 10 ppm (Diabrotica balteata; [7]): 12%; mortality at 10 ppm (Diabrotica balteata; [8]): 8%; mortality at 25 ppm (Diabrotica balteata; [7]): 9%; mortality at 50 ppm (Diabrotica balteata; [8]): 8%; Spray interval (Diabrotica balteata; Rate 5 g AI/ha): 5 days; LC50 (Spodoptera frugiperda): LC50 = 1 ppm
CCc1ccc(C(=O)NN(C(=O)c2cc(C)cc(C)c2)C(C)(C)C)cc1 [Mimic, Tebufenozide]	7	9	8	11			9	13	9	10		10	10	13						transovarially inactive	
O=C(NC(=O)c1c(F)cccc1F)Nc1cc(Cl)c(F)c(Cl)c1F [Nomolt, Teflubenzuron]	40	15	7	11	8	14	76	48	34	11	13	67	14	11	13	10			3	Transovarial effects can be observed	Spray interval (days) (Diabrotica balteata; Rate 5 g AI/ha): Insufficient; Spray interval (days) (Diabrotica balteata; Rate 12.5 g AI/ha): Insufficient
